Counter-ions that a name gives are not always drawn. Like-named read-outs stand apart in the source and are kept apart here. Values belong to the compound of their own block, whether it stands above or below them.
Legend:
5-HT4 receptor = target: T1, 5-HT4 receptor (Cavia porcellus, UniProt O70528); assay: biochemical; type: binding, guinea pig
T1 construct: crude synapse membrane sample was prepared from guinea pig striatum; from tissue; host or cells: guinea pig striatum, crude synaptic membranes
Procedure: Specifically, crude synapse membrane sample was prepared from guinea pig striatum, suspended in 50 mM HEPES buffer (pH 7.4) and used for testing. The test compound having several different concentrations and [3H]GR113808 (final concentration 0.1 nM) were added to this suspension and allowed to react at 37°C. Thirty minutes later, the reaction mixture was filtered by suction with cell harvester. The filter was washed with 50 mM HEPES buffer, and the radioactivity on the filter was counted by liquid scintillation counter. The non-specific binding was determined in the presence of 1 µM GR113808. The concentration of the test compound necessary for 50% inhibition (IC50) was determined from a graph and converted to a Ki value.

5-HT3 receptor = target: T2, 5-HT3 receptor (Rattus norvegicus, UniProt P35563); assay: 5-HT3 receptor binding test ([3H]Granisetron, crude synapse membrane from cerebral cortex); conditions: for Ki: IC50 converted to Ki, read-out: Affinity for receptor (Ki value, nM) 5-HT3
T2 construct: crude synapse membrane sample was prepared from rat cerebral cortex; from tissue; host or cells: rat cerebral cortex, crude synaptic membranes
T2 sequence (P35563 24-483): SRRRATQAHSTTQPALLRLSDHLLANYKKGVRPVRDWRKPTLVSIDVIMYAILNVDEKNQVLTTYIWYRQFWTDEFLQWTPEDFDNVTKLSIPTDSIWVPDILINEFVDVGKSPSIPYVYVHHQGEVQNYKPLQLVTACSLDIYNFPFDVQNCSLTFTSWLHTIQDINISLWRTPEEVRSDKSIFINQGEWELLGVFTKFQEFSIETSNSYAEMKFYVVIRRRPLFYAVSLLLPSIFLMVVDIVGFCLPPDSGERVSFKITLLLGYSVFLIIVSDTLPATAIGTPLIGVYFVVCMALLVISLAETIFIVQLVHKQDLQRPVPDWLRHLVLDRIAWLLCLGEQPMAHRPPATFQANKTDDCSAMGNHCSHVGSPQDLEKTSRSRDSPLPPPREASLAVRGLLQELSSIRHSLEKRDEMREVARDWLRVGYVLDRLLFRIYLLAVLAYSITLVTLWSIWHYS
Procedure: 148, pp. 297-299 (1988)], a specific 5-HT3 receptor binding test was run using, as a tracer ligand, endo-1-methyl-N-(9-methyl-9-azabicyclo[3.3.1]non-3-yl)-1H-indazole-3-carboxamide substituted by tritium (hereinafter to be referred to as [3H]Granisetron). Specifically, crude synapse membrane sample was prepared from rat cerebral cortex, suspended in 50 mM HEPES buffer (pH 7.4) and used for testing. The test compound having several different concentrations and [3H]Granisetron (final concentration 1.0 nM) were added to this suspension and allowed to react at 25°C. Thirty minutes later, the reaction mixture was filtered by suction with cell harvester. The filter was washed with 50 mM Tris buffer (pH 7.4), and the radioactivity on the filter was counted using liquid scintillation counter or β-plate. The non-specific binding was determined in the presence of 1 µM Tropisetron. The concentration of the test compound necessary for 50% inhibition (IC50) was determined from a graph and converted to a Ki value.

Male ddY mice = assay: Stimulation of defecation in mouse; type: in vivo; conditions: for promotion (%) of number / promotion (%) of wet weight: 2 hours, versus vehicle; for number (of feces) / wet weight (mg) (of feces): feces excreted for 2 hours after oral administration, n=20
Procedure: Male ddY mice were placed in partition box, and the number and wet weight of feces excreted for 2 hours from immediately after oral administration of the compound of Example 57 were measured.

Male Hartley guinea pigs = assay: Promotion of colonic transit in guinea pig; type: in vivo; conditions: for ratio of colonic transit (%): colon removed one hour later; for promotion (%) of colonic transit: versus vehicle
Procedure: Male Hartley guinea pigs were subjected to laparotomy under ether anesthesia, and a polyethylene tube was inserted into the beginning of colon. The other end was passed under the skin to be exposed from the neck and fixed there. At day 5 postoperation, Evans blue solution was injected into the colon through the polyethylene tube. One hour later, the colon was removed, and the range of the Evans blue solution was measured, which was calculated relative to the entire length of the colon and expressed as transit ratio. The compound of Example 57 was orally administered one hour before injection of the Evans blue solution.

male Wistar rats = assay: Promotion of gastric emptying in rats; type: in vivo, rat; conditions: for number of pellets (remaining in stomach): stomach removed one hour later; for promotion (%) of gastric emptying: from comparison with remaining pellets in vehicle group
Procedure: Barium pellets (ca. 1 mm diameter) coated with polystyrene was intragastrically administered to male Wistar rats. One hour later, stomach was removed, and the remaining pellets were counted. The compound of Example 57 was orally administered one hour before administration of the pellets. The promotion ratio was calculated from the comparison with the number of remaining pellets in the group administered with vehicle.

[1] = [3H]GR113808 0.1 nM, guinea pig striatum membranes, 37°C, 30 min, IC50 converted to Ki, read-out: Affinity for receptor (Ki value, nM) 5-HT4
[2] = values marked * are IC50, [3H]Granisetron 1.0 nM, rat cerebral cortex membranes, 25°C, 30 min, read-out: Affinity for receptor 5-HT3 (∗ shows IC50)
[3] = [3H]Granisetron 1.0 nM, rat cerebral cortex membranes, 25°C, 30 min

T1 sequence (O70528 whole entry): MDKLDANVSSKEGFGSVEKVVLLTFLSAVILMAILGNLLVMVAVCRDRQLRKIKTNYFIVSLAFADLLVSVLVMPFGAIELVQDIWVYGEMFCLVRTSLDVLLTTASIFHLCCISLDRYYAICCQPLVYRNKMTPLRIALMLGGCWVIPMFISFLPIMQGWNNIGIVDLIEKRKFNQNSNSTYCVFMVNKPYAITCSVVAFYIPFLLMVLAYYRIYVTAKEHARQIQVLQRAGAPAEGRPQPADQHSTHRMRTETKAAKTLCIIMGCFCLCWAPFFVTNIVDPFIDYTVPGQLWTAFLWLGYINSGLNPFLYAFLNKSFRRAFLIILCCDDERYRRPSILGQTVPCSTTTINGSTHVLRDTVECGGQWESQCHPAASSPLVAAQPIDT

Ki (5-HT4 receptor; [1]): 0.84 nM | IC50 (5-HT3 receptor; [2]): > 1000 nM
Compound: CCCN(CCCCCN1CCC(CNC(=O)c2cc(Cl)c(N)cc2OC)CC1)Cc1ccccc1 [Example 33, 4-amino-5-chloro-2-methoxy-N-((1-(5-(N-n-propyl-N-benzylamino)pentyl)piperidin-4-yl)methyl)benzamide]

Ki (5-HT4 receptor; [1]): 0.67 nM | IC50 (5-HT3 receptor; [2]): > 1000 nM
Compound: CCN(CCCCCCN1CCC(CNC(=O)c2cc(Cl)c(N)cc2OC)CC1)Cc1ccccc1 [Example 44, 4-amino-5-chloro-N-((1-(6-(N-ethyl-N-benzylamino)hexyl)piperidin-4-yl)methyl)-2-methoxy benzamide]

Ki (5-HT4 receptor; [1]): 3.5 nM | Ki (5-HT3 receptor; [3]): 370 nM
Compound: COc1cc(N)c(Cl)cc1C(=O)NCC1CCN(CCCCCOCc2ccccc2)CC1 [Example 53, 4-amino-N-((1-(5-benzyloxypentyl)piperidin-4-yl)methyl)-5-chloro-2-methoxybenzamide]

Ki (5-HT4 receptor; [1]): 1.6 nM | Ki (5-HT3 receptor; [3]): 340 nM
Compound: COc1cc(N)c(Cl)cc1C(=O)NCC1CCN(CCCCCSCc2ccccc2)CC1 [Example 54, 4-amino-N-((1-(5-benzylthiopentyl)piperidin-4-yl)methyl)-5-chloro-2-methoxybenzamide]

Ki (5-HT4 receptor; [1]): 2.4 nM | IC50 (5-HT3 receptor; [2]): > 1000 nM
Compound: COc1cc(N)c(Cl)cc1C(=O)NCC1CCN(CCCCCC(=O)c2ccccc2)CC1 [Example 57, 4-amino-5-chloro-2-methoxy-N-((1-(6-oxo-6-phenylhexyl)piperidin-4-yl)methyl)benzamide]
promotion (%) of number (Male ddY mice; 0.1 mg/kg p.o.): 70% | promotion (%) of wet weight (Male ddY mice; 0.1 mg/kg p.o.): 69% | number (of feces) (Male ddY mice; 0.1 mg/kg p.o.): 3.4±0.3 | wet weight (mg) (of feces) (Male ddY mice; 0.1 mg/kg p.o.): 59.2 ± 6.5 mg | promotion (%) of number (Male ddY mice; 0.3 mg/kg p.o.): 135% | promotion (%) of wet weight (Male ddY mice; 0.3 mg/kg p.o.): 136% | number (of feces) (Male ddY mice; 0.3 mg/kg p.o., P<0.01): 4.7±0.5 | wet weight (mg) (of feces) (Male ddY mice; 0.3 mg/kg p.o., P<0.01): 82.7 ± 11.5 mg | promotion (%) of number (Male ddY mice; 1 mg/kg p.o.): 130% | promotion (%) of wet weight (Male ddY mice; 1 mg/kg p.o.): 120% | number (of feces) (Male ddY mice; 1 mg/kg p.o., P<0.01): 4.6±0.6 | wet weight (mg) (of feces) (Male ddY mice; 1 mg/kg p.o., P<0.01): 77.2 ± 11.9 mg | promotion (%) of number (Male ddY mice; 3 mg/kg p.o.): 135% | promotion (%) of wet weight (Male ddY mice; 3 mg/kg p.o.): 132% | number (of feces) (Male ddY mice; 3 mg/kg p.o., P<0.01): 4.7±0.5 | wet weight (mg) (of feces) (Male ddY mice; 3 mg/kg p.o., P<0.01): 81.6 ± 10.4 mg | ratio of colonic transit (%) (Male Hartley guinea pigs; 0.1 mg/kg p.o. one hour before Evans blue injection, n=16): 54.5±8.0% | promotion (%) of colonic transit (Male Hartley guinea pigs; 0.1 mg/kg p.o.): 23% | ratio of colonic transit (%) (Male Hartley guinea pigs; 0.3 mg/kg p.o. one hour before Evans blue injection, n=16): 54.7±5.9% | promotion (%) of colonic transit (Male Hartley guinea pigs; 0.3 mg/kg p.o.): 24% | ratio of colonic transit (%) (Male Hartley guinea pigs; 1 mg/kg p.o. one hour before Evans blue injection, n=15, P<0.05): 71.8±6.9 % | promotion (%) of colonic transit (Male Hartley guinea pigs; 1 mg/kg p.o.): 62% | ratio of colonic transit (%) (Male Hartley guinea pigs; 3 mg/kg p.o. one hour before Evans blue injection, n=14, P<0.05): 73.2±6.3 % | promotion (%) of colonic transit (Male Hartley guinea pigs; 3 mg/kg p.o.): 66% | number of pellets (remaining in stomach) (male Wistar rats; 0.3 mg/kg p.o. one hour before barium pellets): 28.2 ±1.3 | promotion (%) of gastric emptying (male Wistar rats; 0.3 mg/kg p.o.): 0% | number of pellets (remaining in stomach) (male Wistar rats; 1 mg/kg p.o. one hour before barium pellets): 24.3 ±2.5 | promotion (%) of gastric emptying (male Wistar rats; 1 mg/kg p.o.): 14% | number of pellets (remaining in stomach) (male Wistar rats; 3 mg/kg p.o. one hour before barium pellets, P<0.05): 19.0 ±2.6 | promotion (%) of gastric emptying (male Wistar rats; 3 mg/kg p.o.): 32% | number of pellets (remaining in stomach) (male Wistar rats; 10 mg/kg p.o. one hour before barium pellets, P<0.01): 13.3 ±3.0 | promotion (%) of gastric emptying (male Wistar rats; 10 mg/kg p.o.): 53%

Ki (5-HT4 receptor; [1]): 1.5 nM | IC50 (5-HT3 receptor; [2]): > 1000 nM
Compound: COc1cc(N)c(Cl)cc1C(=O)NCC1CCN(CCCCCCC(=O)c2ccccc2)CC1 [Example 58, 4-amino-5-chloro-2-methoxy-N-((1-(7-oxo-7-phenylheptyl)piperidin-4-yl)methyl)benzamide]

Ki (5-HT4 receptor; [1]): 0.34 nM | IC50 (5-HT3 receptor; [2]): > 1000 nM
Compound: COc1cc(N)c(Cl)cc1C(=O)NCC1CCN(CCCCCC(=O)c2cn(C)c3ccccc23)CC1 [Example 77, 4-amino-5-chloro-2-methoxy-N-((1-(6-(1-methyl-1H-indol-3-yl)-6-oxohexyl)piperidin-4-yl)methyl)benzamide]

Ki (5-HT4 receptor; [1]): 0.5 nM | IC50 (5-HT3 receptor; [2]): > 1000 nM
Compound: COc1cc(N)c(Cl)cc1C(=O)NCC1CCN(CCCCCC(=O)c2cccc3ccccc23)CC1 [Example 81, 4-amino-5-chloro-N-((1-(6-(1-naphthyl)-6-oxohexyl)piperidin-4-yl)methyl)-2-methoxybenzamide hydrochloride]

Ki (5-HT4 receptor; [1]): 1.4 nM | IC50 (5-HT3 receptor; [2]): > 1000 nM
Compound: COc1cc(N)c(Cl)cc1C(=O)NCC1CCN(CCCCCS(=O)(=O)c2ccccc2)CC1 [Example 84, 4-amino-5-chloro-2-methoxy-N-((1-(5-phenylsulfonylpentyl)piperidin-4-yl)methyl)benzamide hydrochloride]

The next lines start with the compound.

Compound: COc1cc(N)c(Cl)cc1C(=O)NCC1CCN(CCCCCNCC2CCCCC2)CC1 [Example 11, 4-amino-5-chloro-N-((1-(5-(cyclohexylmethylamino)pentyl)piperidin-4-yl)methyl)-2-methoxybenzamide]
Ki (5-HT4 receptor; [1]): 0.51 nM | IC50 (5-HT3 receptor; [2]): > 1000 nM

Compound: COc1cc(N)c(Cl)cc1C(=O)NCC1CCN(CCCCCNCc2ccc3ccccc3c2)CC1 [Example 14, 4-amino-5-chloro-2-methoxy-N-((1-(5-(2-naphthylmethylamino)pentyl)piperidin-4-yl)methyl)benzamide]
Ki (5-HT4 receptor; [1]): 0.97 nM | IC50 (5-HT3 receptor; [2]): > 1000 nM

Compound: CCN(CCCCCN1CCC(CNC(=O)c2cc(Cl)c(N)cc2OC)CC1)Cc1ccc(F)cc1 [Example 25, 4-amino-5-chloro-N-((1-(5-(N-ethyl-N-(4-fluorobenzyl)amino)pentyl)piperidin-4-yl)methyl)-2-methoxybenzamide]
Ki (5-HT4 receptor; [1]): 0.94 nM | IC50 (5-HT3 receptor; [2]): > 1000 nM

Compound: CCN(CCCCN1CCC(CNC(=O)c2cc(Cl)c(N)cc2OC)CC1)Cc1ccc(Cl)c(Cl)c1 [Example 42, 4-amino-5-chloro-N-((1-(4-(N-(3,4-dichlorobenzyl)-N-ethylamino)butyl)piperidin-4-yl)methyl)-2-methoxybenzamide]
Ki (5-HT4 receptor; [1]): 0.62 nM | IC50 (5-HT3 receptor; [2]): > 1000 nM

Compound: CCN(CCCCCCN1CCC(CNC(=O)c2cc(Cl)c(N)cc2OC)CC1)Cc1ccc([N+](=O)[O-])cc1 [Example 47, 4-amino-5-chloro-N-((1-(6-(N-ethyl-N-(4-nitrobenzyl)amino)hexyl)piperidin-4-yl)methyl)-2-methoxybenzamide]
Ki (5-HT4 receptor; [1]): 2.7 nM | IC50 (5-HT3 receptor; [2]): > 1000 nM

Compound: COc1ccc(C(=O)CCCCCN2CCC(CNC(=O)c3cc(Cl)c(N)cc3OC)CC2)cc1Cl [Example 73, 4-amino-5-chloro-N-((1-(6-(3-chloro-4-methoxyphenyl)-6-oxohexyl)piperidin-4-yl)methyl)-2-methoxybenzamide]
Ki (5-HT4 receptor; [1]): 1.8 nM | IC50 (5-HT3 receptor; [2]): > 1000 nM

Compound: COc1ccc(C(=O)CCCCCN2CCC(CNC(=O)c3cc(Cl)c(N)cc3OC)CC2)cc1F [Example 74, 4-amino-5-chloro-N-((1-(6-(3-fluoro-4-methoxyphenyl)-6-oxohexyl)piperidin-4-yl)methyl)-2-methoxybenzamide]
Ki (5-HT4 receptor; [1]): 5.1 nM | IC50 (5-HT3 receptor; [2]): > 1000 nM

Compound: COc1cc(N)c(Cl)cc1C(=O)NCC1CCN(CCCCCC(=O)c2ccc(O)cc2)CC1 [Example 75, 4-amino-5-chloro-N-((1-(6-(4-hydroxyphenyl)-6-oxohexyl)piperidin-4-yl)methyl)-2-methoxybenzamide]
Ki (5-HT4 receptor; [1]): 1.5 nM | IC50 (5-HT3 receptor; [2]): > 1000 nM

Compound: CCn1cc(C(=O)CCCCCN2CCC(CNC(=O)c3cc(Cl)c(N)cc3OC)CC2)c2ccccc21 [Example 93, 4-amino-5-chloro-2-methoxy-N-((1-(6-(1-ethyl-1H-indol-3-yl)-6-oxohexyl)piperidin-4-yl)methyl)benzamide]
Ki (5-HT4 receptor): 0.47 nM | IC50 (5-HT3 receptor): > 1000 nM
